Assay results from patent US5304367A, “In vivo brain imaging agent and method for diagnosis of psychiatric disorders” (New York University, priority 1990, dated 1994).
Values joined by “and” are separate entries in the source; they are usually repeats but may differ in a detail not shown here. Identical values can stand only once. Like-named read-outs stand apart in the source and are kept apart here.

Assays:
β1 receptor subtype = test: ^3 H-DHA saturation binding on homogenates of frontal superior gyrus, β1; design: species or system human; conditions: 3 brains, 0.1 μM zinterol or metoprolol for subtype differentiation
Description: (§1) Following the characterization and localization of a group effect (such as, for example, age, sex or suicide) by autoradiography, samples from at least one involved region are dissected from the relevant blocks and homogenized for saturation binding studies using well known techniques.
(§2) Based on 3 brains, a total Bmax of 50-100 fm/mg protein was calculated, with the β1 receptor subtype accounting for the majority of the sites (Bmax: 40-60 fm/mg protein) and a smaller β2 receptor fraction (Bmax: 25-40 fm/mg protein). The Bmax values for the two subtypes added up to total specific binding in each individual brain, confirming the use of the two blocker concentrations for receptor subtype differentiation.

βAR [1] = test: ^3 H-DHA saturation binding on homogenates of frontal superior gyrus, total; design: species or system human; conditions: 3 brains
β-adrenergic receptor = test: [^3 H]DHA saturation binding in prefrontal cortical homogenates from suicides and controls (Scatchard analysis); design: species or system human
Text: as §1
Fourteen suicide and 14 pair-matched control brains were collected over 3 years from the medical examiner's offices in New York City and Jaffa, ISRAEL. […] The results of the coroner's examination as well as the results of broad-spectrum toxicological tests performed by the forensic laboratory were made available within 8 weeks. Only drug-free and pathology-free brains were included. For each suicide brain, a control matched for sex and age group with a PMD under 48 hours was collected the same day or within a few days, so that the pairs are also matched for storage time. The brains from each pair were dissected or sectioned on the same day and receptors were labeled in the same experiment, by an experimenter blind to the identity of the samples.
(§3) The brains were removed at autopsy and the right hemisphere sliced in the coronal plane. The slices, about 2 cm thick, were examined for signs of pathology and frozen in powdered dry ice, then removed for long-term storage at -80° C. Grey matter from the most frontal slice (prefrontal cortex) was dissected with a scalpel and homogenized. Crude membrane preparations were made from the homogenates, divided and stored frozen for saturation binding assays. The other slices were used for autoradiography. Eight concentrations of [^3 H]DHA (New England Nuclear, specific activity: 72 Ci/mmol), ranging from 0.1 to 4 nM were incubated with samples of the membrane preparations, with parallel incubates containing 10^-6 M propranolol to establish non-specific binding (Biegon et al., Life Sci. 32:2015-2022 ;(1983)); Enna et al., J. Neurochem. 28:233-236 (1983)). β-Receptor subtypes were distinguished by coincubation of the radioligand 10^-6 M concentrations of either zinterol, a […] blocker, or […] blocker, in 5 out of the 10 pairs included in this part of the study (Ecker et al., Int. Catecholamine Symp. Abstr. 6:52 (1987)). The affinity (Kd and maximal density (Bmax) of the receptors were derived from Scatchard analysis (Scatchard G., Ann. N.Y. Acad. Sci. 51:660-672 (1949)) of the binding data and protein was assayed by the method of Lowry et al.(Lowry et al., J. Biol. Chem. 193:265-275 (1951)).
The binding characteristics of βARs were studied in prefrontal cortical homogenates from 10 pairs. The region corresponds to Brodmann's areas 9 and 10.

β2 receptor = test: ^3 H-DHA saturation binding on homogenates of frontal superior gyrus, β2; design: species or system human; conditions: 3 brains, 0.1 μM zinterol or metoprolol for subtype differentiation
Description: as §1, §2

β2-receptors = target: T1, β2-receptors (Homo sapiens, UniProt P07550); test: [^3 H]DHA saturation binding in prefrontal cortical homogenates, β2-receptors
T1 construct: Crude membrane preparations were made from the homogenates; from tissue; host or cells: human post-mortem prefrontal cortex (grey matter), crude membranes
Text: as §1, §3

β1-receptors = target: T2, β1-receptors (Homo sapiens, UniProt P08588); test: [^3 H]DHA saturation binding in prefrontal cortical homogenates, β1-receptors
T2 construct: Crude membrane preparations were made from the homogenates; from tissue; host or cells: human post-mortem prefrontal cortex (grey matter), crude membranes
Text: as §1, §3

β1 receptors = test: autoradiographic mapping of β1 receptors (iodopindolol in the presence of zinterol); type: binding, human; conditions: FIG. 3
Description: (§4) Slides holding tissue sections are incubated for about 70 min at approximately 25° C. with 0.15 nM ^125 I-iodopindolol (New England Nuclear, 2200 Ci/mmole) in 25 mM Tris buffer, pH 7.5, containing 150 mM NaCl. Nonspecific binding is determined in the presence of 1 μM propranolol (see Examples, below). Zinterol, a selective β2 blocker, or metoprolol, a selective β1 antagonist, are added to the incubation buffer at 0.1 μM to achieve selective labeling of the β1 and β2 receptor subtypes, respectively. The incubation is followed by three 20 min washes in the same ice cold buffer. Slides are then dipped in ice cold distilled water to remove buffer salts, dried on a 50° C. slide warmer and apposed to ^3 H-sensitive film (Amersham ^3 H-hyperfilm) for 48-96 hours. The film is coexposed to commercial iodine standards (available from Amersham, for example). Film is developed manually using standard developer and fixer such as those available from the Eastman-Kodak Company. […]
(§5) Based on 3 brains, a total Bmax of 50-100 fm/mg protein was calculated, with the β1 receptor subtype accounting for the majority of the sites (Bmax: 40-60 fm/mg protein) and a smaller β2 receptor fraction (Bmax: 25-40 fm/mg protein). […]

[2] = whole body distribution, mice, 2 μCi; type: in vivo, mouse; conditions: conclusion from whole body distribution studies
Description: In a subsequent study, whole body distribution was examined in mice following tail vein injection of 2 μCi ^125 I-iodopindolol. Animals were sacrificed at various time points up to 22 hours post-injection. Percent injected dose (%ID) was determined in 11 organs, blood and urine. At one minute, lungs contained the highest %ID (17%), heart 3-4 %ID and brain 0.3%ID.

βAR [3] = test: in vivo autoradiography of brain distribution and kinetics; design: species or system rat
Description: In vivo autoradiography was been used to study brain distribution and kinetics of iodopindolol. Groups of rats (3 per treatment/time) were injected intravenously (i.v.) in the tail vein with 250 μCi/kg ^125 I-iodopindolol, either alone or 5 min after an intraperitoneal injection of the βAR antagonist (beta blocker) propranolol (5 mg/kg), to define nonspecific binding. Animals were sacrificed by decapitation 15, 30, 60 and 90 minutes post- injection and the brains quickly removed. The right hemisphere and a blood sample were used for direct counting while the left hemisphere was frozen immediately on dry ice and then sectioned sagittally. Sections were apposed to hyperfilm for one week.

β2 = conditions: experimental animals; cited from earlier work
[4] = target: beta adrenergic receptors (βAR); conditions: βAR antagonist; Barovsky et al.; read-out: affinity; cited from earlier work
[5] = test system: serotonin receptors of the 5HT1D subtype; conditions: unlike most other βAR antagonists; cited from earlier work
[6] = experimental animals; cited from earlier work
β2 receptors = test: autoradiographic mapping of β2 receptors (iodopindolol in the presence of metoprolol); type: binding, human; conditions: FIG. 4
Description: as §4, §5

[7] = test system: serotonin receptors of the 5HT1B subtype; conditions: unlike most other βAR antagonists; cited from earlier work
β1 = conditions: experimental animals; cited from earlier work

T1 sequence (P07550 whole entry, looked up): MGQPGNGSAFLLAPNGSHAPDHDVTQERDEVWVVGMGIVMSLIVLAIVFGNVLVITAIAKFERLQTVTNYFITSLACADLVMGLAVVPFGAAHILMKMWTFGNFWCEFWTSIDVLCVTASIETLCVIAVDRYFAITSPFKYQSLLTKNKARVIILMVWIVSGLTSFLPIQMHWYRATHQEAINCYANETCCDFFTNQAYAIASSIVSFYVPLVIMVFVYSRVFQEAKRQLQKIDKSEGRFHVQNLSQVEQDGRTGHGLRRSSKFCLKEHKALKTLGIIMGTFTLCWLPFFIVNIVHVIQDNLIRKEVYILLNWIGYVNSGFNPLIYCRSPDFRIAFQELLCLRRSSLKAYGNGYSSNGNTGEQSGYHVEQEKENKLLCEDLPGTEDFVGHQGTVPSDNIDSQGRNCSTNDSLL
T2 sequence (P08588 whole entry): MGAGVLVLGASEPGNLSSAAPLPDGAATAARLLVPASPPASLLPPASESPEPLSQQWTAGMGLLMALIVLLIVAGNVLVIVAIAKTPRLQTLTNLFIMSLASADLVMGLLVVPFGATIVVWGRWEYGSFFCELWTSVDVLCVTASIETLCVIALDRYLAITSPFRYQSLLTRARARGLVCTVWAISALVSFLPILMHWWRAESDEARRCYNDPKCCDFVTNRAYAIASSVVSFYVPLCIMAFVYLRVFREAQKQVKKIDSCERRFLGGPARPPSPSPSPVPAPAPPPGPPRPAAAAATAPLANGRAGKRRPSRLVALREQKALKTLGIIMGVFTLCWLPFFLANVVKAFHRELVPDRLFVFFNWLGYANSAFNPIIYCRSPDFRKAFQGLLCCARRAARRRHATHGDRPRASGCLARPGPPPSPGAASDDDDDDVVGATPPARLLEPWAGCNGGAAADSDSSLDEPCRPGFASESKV

## CCCc1ccccc1OCC(O)CNC(C)C (stereo not drawn) [[^3 H]DHA, dihydroalprenolol]
β1 receptor subtype
  Bmax, β1 receptor subtype: 40-60 fm/mg protein
βAR [1]
  total Bmax: 50-100 fm/mg protein
β-adrenergic receptor; control, individual of matched pair, prefrontal cortex
  Bmax: 65 fm/mg P and 92 fm/mg P and 44 fm/mg P and 31 fm/mg P and 86 fm/mg P and 55 fm/mg P and 78 fm/mg P and 36 fm/mg P and 32 fm/mg P and 53 fm/mg P
β-adrenergic receptor; control, individual of matched pair, prefrontal cortex, read-out: Kd
  Kd: 0.84 nM and 0.8 nM and 0.3 nM and 0.4 nM and 0.6 nM and 1.25 nM and 1.5 nM
β-adrenergic receptor; control, mean of 10, SEM 7.9
  Bmax, mean: 57.7 fm/mg P
β-adrenergic receptor; suicide vs control
  change in receptor affinity (Kd): no significant change in receptor affinity
β-adrenergic receptor; suicide vs control, 9 of the 10 pairs
  Increases in binding (range): 30% to 115%
β-adrenergic receptor; suicide vs control, P<0.0003
  Increases in binding (mean): 48%
β-adrenergic receptor; suicide, individual of matched pair, prefrontal cortex
  Bmax: 108 fm/mg P and 81 fm/mg P and 85 fm/mg P and 67 fm/mg P and 119 fm/mg P and 97 fm/mg P and 106 fm/mg P and 58 fm/mg P and 53 fm/mg P and 83 fm/mg P
β-adrenergic receptor; suicide, individual of matched pair, prefrontal cortex, read-out: Kd
  Kd: 0.98 nM and 0.9 nM and 1.5 nM and 1.2 nM and 1.4 nM and 1.1 nM and 1 nM and 0.4 nM and 0.8 nM
β-adrenergic receptor; suicide, mean of 10, SEM 0.1, read-out: Kd, mean
  Kd: 1 nM
β-adrenergic receptor; suicide, mean of 10, SEM 7.8, P < 0.0003
  Bmax, mean: 86.0 fm/mg P
β2 receptor
  Bmax, β2 receptor: 25-40 fm/mg protein
β2-receptors; control
  Bmax, β2-receptors: 28.0±4.0 fm/mg protein
  Kd: 1.1 ± 0.13 nM
β2-receptors; suicide, p=0.1
  Bmax, β2-receptors: 39.2±3.1 fm/mg protein
β1-receptors; control, n=5
  Bmax, β1-receptors: 37.7±9.3 fm/mg protein
  Kd: 2.2 ± 0.5 nM
β1-receptors; suicide, n=5
  Kd: 1.7 ± 0.3 nM
β1-receptors; suicide, n=5, P<0.015
  Bmax, β1-receptors: 50.3±9.4 fm/mg protein

## CC(C)NCC(O)COc1cccc2[nH]cc(I)c12 (stereo not drawn) [iodopindolol]
β1 receptors
  distribution of β1 receptors: predominate in the prefrontal cortical external layers and in basal ganglia
[2]
  brain uptake: hindered by the blood brain barrier
βAR [3]; 15 and 30 minutes post-injection, 250 μCi/kg i.v., propranolol 5 mg/kg i.p.
  difference between total and nonspecific binding to brains: very small difference
βAR [3]; 60 and 90 minutes, propranolol 5 mg/kg i.p.
  brain binding of radiolabel, propranolol pre-injected: low and uniform brain binding of radiolabel
βAR [3]; 60 and 90 minutes, without propranolol
  distribution of binding in the brain: high levels in frontal cortex, caudate, and cerebellum; moderate to low levels in various hippocampal structures and thalamic nuclei; low levels in brain stem and medulla
βAR [3]; FIG. 5, 15 minutes post injection
  difference between iodopindolol alone and propranolol-pretreated animals: no apparent difference
βAR [3]; FIG. 6, 60 minutes post injection
  distribution of radioactivity: relatively high levels in external cortical layers, caudate and cerebellum and relatively low levels in hippocampus
βAR [3]; between 60 and 90 minutes
  brain levels of bound radiolabel: do not decline appreciably between 60 and 90 minutes
βAR [3]; one hour after injection
  specific labelling of βAR in the brain: specifically labels βAR
β2
  labelling of βAR subtype β2 in vivo: labels both βAR subtypes, β1 and β2, in vivo
[4]
  Kd: < 1 nM
[5]
  affinity for serotonin receptors, 5HT1D: low affinity
[6]
  crossing of blood brain barrier: crosses the blood brain barrier
β2 receptors
  distribution of β2 receptors: found in internal cortical layers and predominate in hippocampus, cerebellum and white matter
[7]
  affinity for serotonin receptors, 5HT1B: low affinity
β1
  labelling of βAR subtype β1 in vivo: labels both βAR subtypes, β1 and β2, in vivo
